Assay results reported in ChEMBL document CHEMBL1201862, “PubChem BioAssay data set” (2004).
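A five-concentration, 48-hour dose response in 96-well plates underlies each endpoint, interpolated linearly between surrounding concentrations. The concentration for 50% growth inhibition is given as GI50.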 Activity calls are given as the source filed them. No stated cut-off is given here; in the data, active = GI50 up to about 1.1 µM and inactive = higher.

Experiments:
Assay in all cases: NCI-60 cell line screen, 48 h
[1] = system: UO-31
[2] = system: SF-539
[3] = system: SF-268
[4] = system: UACC-257
[5] = system: KM12
[6] = system: M14
[7] = system: COLO 205
[8] = system: SK-MEL-2
[9] = system: HOP-92
[10] = system: SNB-75
[11] = system: NCI-H23
[12] = system: K562
[13] = system: OVCAR-5
[14] = system: SNB-19
[15] = system: RPMI-8226
[16] = system: OVCAR-4
[17] = system: RXF 393
[18] = system: EKVX

Measured: GI50

O=C1C2C(C(=O)N1c1ccccc1)C1([N+](=O)[O-])C=C3c4ccccc4N(C(=O)c4ccccc4)C32C2C(=O)N(c3ccccc3)C(=O)C21 (stereo not drawn)
inactive: [1] > 100 µM | [2] > 10 µM | [3] > 100 µM | [4] > 100 µM | [5] > 100 µM | [6] > 100 µM | [7] > 100 µM | [8] > 100 µM | [9] > 100 µM | [10] > 100 µM | [11] > 100 µM | [12] > 100 µM | [13] > 100 µM | [14] > 100 µM

CN1C(=O)C(=CN(C)c2ccccc2)C(=O)N(C)C1=O
inactive: [1] > 100 µM | [15] > 100 µM | [2] > 100 µM | [16] > 100 µM | [4] > 100 µM | [5] > 100 µM | [6] 74.5 µM | [8] > 100 µM | [10] 92.7 µM | [17] 69 µM | [12] > 100 µM | [18] 65.8 µM | [13] > 100 µM | [14] > 100 µM

C\C=C/C=C/C=C/C(=O)O
inactive: [1] > 100 µM | [15] > 100 µM | [2] > 100 µM | [16] > 100 µM | [3] > 100 µM | [4] > 100 µM | [5] > 100 µM | [6] > 100 µM | [7] > 100 µM | [8] > 100 µM | [10] > 100 µM | [11] > 100 µM | [17] > 100 µM | [12] > 100 µM | [18] 67.3 µM | [13] > 100 µM | [14] > 100 µM

CC1=C(CC2C(=O)N(c3ccccc3)S(=O)(=O)NC2C)C(=O)N(c2ccccc2)S(=O)(=O)N1C (stereo not drawn)
inactive: [1] > 100 µM | [15] > 100 µM | [2] > 100 µM | [16] > 100 µM | [3] > 100 µM | [5] > 100 µM | [6] > 100 µM | [7] > 100 µM | [8] > 100 µM | [9] > 100 µM | [10] > 100 µM | [11] > 100 µM | [12] > 100 µM | [18] > 100 µM | [13] > 100 µM | [14] > 100 µM

CC1(O)CC2C(CC1SC1CC3C(CC1(C)O)C3(C)C)C2(C)C (stereo not drawn)
inactive: [1] 24 µM | [15] 41.9 µM | [2] > 100 µM | [16] 21.7 µM | [3] > 100 µM | [4] 49 µM | [5] 46.8 µM | [6] 48.2 µM | [7] 35.5 µM | [8] 40.1 µM | [9] 36.2 µM | [10] 27.9 µM | [11] 41.7 µM | [12] 30.5 µM | [18] 32.5 µM | [13] 78.9 µM

CC(C)N(C(=O)C12C3C4C1C1C2C3C41I)C(C)C (stereo not drawn)
inactive: [1] > 100 µM | [2] > 10 µM | [16] > 100 µM | [3] > 100 µM | [5] > 100 µM | [6] > 100 µM | [7] > 100 µM | [9] 88.9 µM | [10] > 100 µM | [11] > 100 µM | [12] > 100 µM | [18] > 100 µM | [13] 84.3 µM | [14] > 100 µM

COc1ccc(C2ON(c3cccc(C)n3)CC=C2C)cc1 (stereo not drawn)
inactive: [1] 45.7 µM | [15] 30.9 µM | [2] 60 µM | [16] 62.5 µM | [3] 60.1 µM | [4] 31 µM | [5] 36.3 µM | [6] 32.6 µM | [7] 41.4 µM | [8] 27.4 µM | [10] 29 µM | [11] 27.6 µM | [17] 29.4 µM | [12] 38.8 µM | [18] > 100 µM | [13] > 100 µM | [14] 97.1 µM
